experiment: Stability of JAK3 covalent inhibitors in human whole blood; assay type: in vitro ADME; conditions: both sexes, whole blood, 37° C., read-out: Human blood stability t1/2;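 also: parent compound remaining over incubation time quantified by LC-MS/MS as peak area ratio against an internal standard, using pooled K2-EDTA blood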

Compound | half-life at 1 μM [h]
C=CC(=O)N1CC[C@H](F)[C@@H](Nc2ncnc3[nH]ccc23)C1 [Example 4, 1-((3S,4S)-3-((7H-pyrrolo[2,3-d]pyrimidin-4-yl)amino)-4-fluoropiperidin-1-yl)prop-2-en-1-one] | 2.33
C=CC(=O)N1CC[C@H](C)[C@@H](Nc2ncnc3[nH]ccc23)C1 (racemic) [Example 50, 1-[(3R,4S)-4-methyl-3-(7H-pyrrolo[2,3-d]pyrimidin-4-ylamino)piperidin-1-yl]prop-2-en-1-one] | > 6
C=CC(=O)N1CCC[C@@H](Nc2ncnc3[nH]cc(-c4cncc(OC)c4)c23)C1 [Example 24, 1-[(3R)-3-{[5-(5-methoxypyridin-3-yl)-7H-pyrrolo[2,3-d]pyrimidin-4-yl]amino}piperidin-1-yl]prop-2-en-1-one] | > 6
C=CC(=O)N1C[C@H](Nc2ncnc3[nH]ccc23)C[C@H](OC)C1 [Example 19, 1-((3R,5S)-3-((7H-Pyrrolo[2,3-d]pyrimidin-4-yl)amino)-5-methoxypiperidin-1-yl)prop-2-en-1-one] | 3.51
C=CC(=O)N1CCC[C@@H](Nc2ncnc3[nH]cc(Cl)c23)C1 [Example 3, (R)-1-(3-((5-chloro-7H-pyrrolo[2,3-d]pyrimidin-4-yl)amino)piperidin-1-yl)prop-2-en-1-one] | 3.2
C=CC(=O)N1CC[C@@H]2CCN(c3ncnc4[nH]ccc34)[C@@H]2C1 (single isomer, unassigned) [Example 8] | 3.2
C=CC(=O)N1CCCC(C)(Nc2ncnc3[nH]ccc23)C1 (stereo not shown) [Example 71, 1-(3-((7H-Pyrrolo[2,3-d]pyrimidin-4-yl)amino)-3-methylpiperidin-1-yl)prop-2-en-1-one] | 3.82
C=CC(=O)N1CCC[C@@H](Nc2ncnc3[nH]cc(CCOC)c23)C1 [Example 46, 1-[(3R)-3-{[5-(2-methoxyethyl)-7H-pyrrolo[2,3-d]pyrimidin-4-yl]amino}piperidin-1-yl]prop-2-en-1-one] | > 5.74
C=CC(=O)N1CCC[C@@H](Nc2ncnc3[nH]cc(-c4ccc5c(cnn5C)c4)c23)C1 [Example 34, 1-[(3R)-3-{[5-(1-methyl-1H-indazol-5-yl)-7H-pyrrolo[2,3-d]pyrimidin-4-yl]amino}piperidin-1-yl]prop-2-en-1-one] | > 6
C=CC(=O)N1CC[C@@H](F)[C@@H](Nc2ncnc3[nH]ccc23)C1 [Example 54, 1-((3S,4R)-3-((7H-pyrrolo[2,3-d]pyrimidin-4-yl)amino)-4-fluoropiperidin-1-yl)prop-2-en-1-one] | 3.5
C=CC(=O)N1[C@@H]2CC[C@H]1CN(c1cnc3[nH]cc(C(=O)NC(C)C)c3n1)C2 [Example 301, 2-[(1R,5S)-8-acryloyl-3,8-diazabicyclo[3.2.1]oct-3-yl]-N-(propan-2-yl)-5H-pyrrolo[2,3-b]pyrazine-7-carboxamide] | 1.4
C=CC(=O)N1CC[C@H](C)[C@@H](Nc2ncnc3[nH]ccc23)C1 [Example 11, 1-((3R,4S)-3-((7H-pyrrolo[2,3-d]pyrimidin-4-yl)amino)-4-methylpiperidin-1-yl)prop-2-en-1-one] | > 4.93
C=CC(=O)N1C[C@H](C)C[C@H](Nc2ncnc3[nH]ccc23)C1 [Example 128, 1-[(3R,5S)-3-Methyl-5-(7H-pyrrolo[2,3-d]pyrimidin-4-ylamino)piperidin-1-yl]prop-2-en-1-one] | 5.07
C=CC(=O)N1CCC[C@@H](Nc2ccnc3[nH]cc(C)c23)C1 [Example 47, 1-{(3R)-3-[(3-methyl-1H-pyrrolo[2,3-b]pyridin-4-yl)amino]piperidin-1-yl}prop-2-en-1-one] | 5.26
C#Cc1c[nH]c2ncnc(N3CC[C@H]4CCN(C(=O)C=C)C[C@H]43)c12 [Example 48, 1-[(3aS,7aS)-1-(5-ethynyl-7H-pyrrolo[2,3-d]pyrimidin-4-yl)octahydro-6H-pyrrolo[2,3-c]pyridin-6-yl]prop-2-en-1-one] | 2.5

Other lines, results leading:

half-life at 1 μM [h] | Compound
> 6 | C=CC(=O)N1CCC(Oc2cnc3[nH]cc(-c4cnn(C)c4)c3n2)CC1 [Example 218, 1-(4-{[7-(1-methyl-1H-pyrazol-4-yl)-5H-pyrrolo[2,3-b]pyrazin-2-yl]oxy}piperidin-1-yl)prop-2-en-1-one]
> 6 | C=CC(=O)N[C@H]1C[C@H](Nc2cnc3[nH]cc(C(=O)NC(C)C)c3n2)C1 [Example 198, 2-{[trans-3-(acryloylamino)cyclobutyl]amino}-N-(propan-2-yl)-5H-pyrrolo[2,3-b]pyrazine-7-carboxamide]
3.63 | C=CC(=O)N1CCC(Nc2cnc3[nH]cc(C(=O)NCC(F)(F)F)c3n2)CC1 [Example 273, 2-[(1-acryloylpiperidin-4-yl)amino]-N-(2,2,2-trifluoroethyl)-5H-pyrrolo[2,3-b]pyrazine-7-carboxamide]
> 6 | C=CC(=O)N1CCC(Nc2cnc3[nH]ccc3n2)CC1 [Example 176, 1-[4-(5H-pyrrolo[2,3-b]pyrazin-2-ylamino)piperidin-1-yl]prop-2-en-1-one]
4.73 | C=CC(=O)N1CCC(Nc2cnc3[nH]cc(C(=O)N[C@H]4CC[C@@H](F)C4)c3n2)CC1 [Example 244, 2-[(1-acryloylpiperidin-4-yl)amino]-N-[(1S,3R)-3-fluorocyclopentyl]-5H-pyrrolo[2,3-b]pyrazine-7-carboxamide]
> 6 | C=CC(=O)N1CCN(c2cnc3[nH]cc(C(=O)NC(C)C)c3n2)CC1(C)C [Example 293, 2-(4-acryloyl-3,3-dimethylpiperazin-1-yl)-N-(propan-2-yl)-5H-pyrrolo[2,3-b]pyrazine-7-carboxamide]
4.8 | C=CC(=O)N1CCC(Nc2cnc3[nH]cc(C(=O)N[C@H](C)COC)c3n2)CC1 [Example 268, 2-[(1-acryloylpiperidin-4-yl)amino]-N-[(2R)-1-methoxypropan-2-yl]-5H-pyrrolo[2,3-b]pyrazine-7-carboxamide]
4.05 | C=CC(=O)N1CCC(Nc2cnc3[nH]cc(C(=O)N[C@@H]4CCC[C@H]4F)c3n2)CC1 [Example 237, 2-[(1-acryloylpiperidin-4-yl)amino]-N-[(1R,2R)-2-fluorocyclopentyl]-5H-pyrrolo[2,3-b]pyrazine-7-carboxamide]
5.75 | C=CC(=O)N1CCC(Nc2cnc3[nH]cc(C(=O)N[C@@H](C)CC)c3n2)CC1 [Example 285, 2-[(1-acryloylpiperidin-4-yl)amino]-N-[(2S)-butan-2-yl]-5H-pyrrolo[2,3-b]pyrazine-7-carboxamide]
3.15 | C=CC(=O)N1CCN(c2cnc3[nH]cc(C(=O)NC(C)C)c3n2)C[C@@H]1C [Example 295, 2-[(3S)-4-acryloyl-3-methylpiperazin-1-yl]-N-(propan-2-yl)-5H-pyrrolo[2,3-b]pyrazine-7-carboxamide]
> 6 | C=CC(=O)N1CC[C@@H](Nc2cnc3[nH]cc(C(=O)NC(C)C)c3n2)[C@H](O)C1 [Example 196, 2-{[(3R,4R)-1-acryloyl-3-hydroxypiperidin-4-yl]amino}-N-(propan-2-yl)-5H-pyrrolo[2,3-b]pyrazine-7-carboxamide]
5.87 | C=CC(=O)N1CCC(C)(Nc2cnc3[nH]cc(C(=O)NC(C)C)c3n2)CC1 [Example 318, 2-[(1-acryloyl-4-methylpiperidin-4-yl)amino]-N-(propan-2-yl)-5H-pyrrolo[2,3-b]pyrazine-7-carboxamide]
4.93 | C=CC(=O)N1CCC(Nc2cnc3[nH]cc(C(=O)NC4CCCC4(F)F)c3n2)CC1 (stereo not shown) [Example 234, 2-[(1-acryloylpiperidin-4-yl)amino]-N-(2,2-difluorocyclopentyl)-5H-pyrrolo[2,3-b]pyrazine-7-carboxamide]
2.03 | C=CC(=O)N1CCN(c2cnc3[nH]cc(C(=O)NC(C)C)c3n2)[C@H](C)C1 [Example 307, 2-[(2R)-4-acryloyl-2-methylpiperazin-1-yl]-N-(propan-2-yl)-5H-pyrrolo[2,3-b]pyrazine-7-carboxamide]
> 6 | C=CC(=O)N1CCC(Nc2cnc3[nH]cc(C(=O)NC4CCCC4)c3n2)CC1 [Example 283, 2-[(1-acryloylpiperidin-4-yl)amino]-N-cyclopentyl-5H-pyrrolo[2,3-b]pyrazine-7-carboxamide]
4.53 | C=CC(=O)N1CCC(Nc2cnc3[nH]cc(C(=O)N[C@H]4CC[C@H](F)C4)c3n2)CC1 [Example 247, 2-[(1-acryloylpiperidin-4-yl)amino]-N-[(1S,3S)-3-fluorocyclopentyl]-5H-pyrrolo[2,3-b]pyrazine-7-carboxamide]
> 6 | C=CC(=O)N[C@H]1C[C@@H](Nc2cnc3[nH]cc(C(=O)NC(C)C)c3n2)C1 [Example 184, 2-{[cis-3-(acryloylamino)cyclobutyl]amino}-N-(propan-2-yl)-5H-pyrrolo[2,3-b]pyrazine-7-carboxamide]
> 6 | C=CC(=O)N(C)C1CN(c2cnc3[nH]cc(C(=O)NC(C)C)c3n2)C1 [Example 187, 2-{3-[acryloyl(methyl)amino]azetidin-1-yl}-N-(propan-2-yl)-5H-pyrrolo[2,3-b]pyrazine-7-carboxamide]
> 6 | C=CC(=O)N1CCC(Nc2cnc3[nH]cc(-c4cnc(OC)nc4)c3n2)CC1 [Example 210, 1-(4-{[7-(2-methoxypyrimidin-5-yl)-5H-pyrrolo[2,3-b]pyrazin-2-yl]amino}piperidin-1-yl)prop-2-en-1-one]
3.75 | C=CC(=O)N1CCC(Nc2cnc3[nH]cc(C(=O)NC(C)(C)CC)c3n2)CC1 [Example 276, 2-[(1-acryloylpiperidin-4-yl)amino]-N-(2-methylbutan-2-yl)-5H-pyrrolo[2,3-b]pyrazine-7-carboxamide]
4.16 | C=CC(=O)N1CCN(c2cnc3[nH]cc(C(=O)NC(C)C)c3n2)CC1 [Example 174, 2-(4-acryloylpiperazin-1-yl)-N-(propan-2-yl)-5H-pyrrolo[2,3-b]pyrazine-7-carboxamide]
> 6 | C=CC(=O)N1CC[C@@H](Nc2cnc3[nH]cc(C(=O)NC(C)(C)C)c3n2)C[C@H]1C [Example 342, 2-(((2R,4R)-1-Acryloyl-2-methylpiperidin-4-yl)amino)-N-(tert-butyl)-5H-pyrrolo[2,3-b]pyrazine-7-carboxamide]

Source: patent publication US9617258B2, “Pyrrolo[2,3-d]pyrimidinyl, pyrrolo[2,3-b]pyrazinyl and pyrrolo[2,3-d]pyridinyl acrylamides” (Pfizer Inc., priority 2013, dated 2017)
